The values below come from patent US10189796B2, “[4-(1,3,3-trimethyl-2-oxo-3,4-dihydro-1H-quinoxalin-7-yl)phenoxy]ethyloxy compound or salt thereof” (SANTEN PHARMACEUTICAL CO., LTD., priority 2015, dated 2019).

The target of assay [1] is Recombinant human GR (Homo sapiens (Human), UniProt P04150). The experiment in a line: GR competitive binding assay by fluorescence polarization. To be noted: 20 μM test compound solution, 10 μL/well; 2 hours; DEX positive control; read-out: GR binding rate (%). The procedure:
In order to evaluate a binding activity of the present compound to GR, a GR receptor competitor assay was carried out by a fluorescence polarization method. In the assay, a GR competitive binding assay kit (manufactured by Invitrogen, cat No. P2816) was used for the assay, and a procedure was carried out according to the protocol attached to the kit. Hereinafter, the specific method will be described.
GR screening buffer: A buffer containing 10 mM of potassium phosphate (pH 7.4), 20 mM of sodium molybdate (Na2MoO4), 0.1 mM of ethylene diamine tetraacetic acid (EDTA), 5 mM of dithiothreitol (DTT), 0.1 mM of stabilizing peptide and 2% of dimethylsulfoxide was prepared.
4×GS1 solution: Fluormone™ GS1, which is a fluorescent glucocorticoid ligand, was diluted with GR screening buffer, whereby a 4 nM solution was prepared.
4×GR solution: Recombinant human GR was diluted with GR screening buffer, whereby a 16 nM solution was prepared.
After a test compound was dissolved in dimethylsulfoxide, the resulting solution was diluted with GR screening buffer, whereby a 20 μM test compound solution was prepared. In addition, DEX was similarly dissolved, whereby a DEX solution with a […] concentration was prepared, and the solution was diluted with GR screening buffer, whereby a 2 mM DEX solution was prepared. DEX was used as positive control.
• 1) The test compound solution was added in an amount of 10 μL into each well of a 384-well plate. • 2) 4×GS1 solution and 4×GR solution were added in an amount of 5 μL into each well, respectively. • 3) GR screening buffer was added in an amount of 10 μL/well into each well in place of the test compound solution, which was made a negative control. • 4) A 2 mM of DEX was added in an amount of 10 μL/well into each well in place of the test compound solution, which was made a positive control. • 5) The plate was incubated in a dark place at room temperature for 2 hours, and fluorescence polarization of each well was measured. (Calculation Equation of GR Binding Ratio)
A GR binding ratio (%) was calculated from the following equation. GR binding ratio (%)=100×{1−(fluorescence polarization of test compound solution−average value of fluorescence polarization of positive control solution)/(average value of fluorescence polarization of negative control solution−average value of fluorescence polarization of positive control solution)}

Assay [2] concerns TNFα production in rat whole blood. The experiment in a line: TNFα production inhibitory action evaluation test (LPS stimulation ex vivo, ELISA). The format is cell-based. To be noted: 20 hours, 200 μM test compound solution 10 μL/well, DEX treated group = 100, read-out: TNFα production inhibitory ratio (% DEX). The procedure:
In order to evaluate an action of the present compound as a GR agonist, a TNFα production inhibitory action in rat whole blood after LPS stimulation ex vivo was investigated. For the measurement of the TNFα production amount, the ELISA method (manufactured by R&D Systems, Cat No. RTA00) was used, and a procedure was carried out according to the protocol attached thereto. Hereinafter, the specific method will be described.
LPS solution: LPS was dissolved in PBS(−) and diluted with RPMI 1640 to prepare an LPS solution with a concentration of 2 μg/mL.
After the test compound was dissolved in dimethylsulfoxide, the solution was diluted with PBS(−) to prepare 200 μM of a test compound solution. In addition, DEX was similarly dissolved to prepare 200 μM of a DEX solution, and a TNFα production inhibitory ratio of DEX was measured, and used for calculation of Efficacy (% DEX).
• 1) Blood was collected from 3 to 5 rats using an injection syringe treated with heparin from the abdominal aorta under isoflurane anesthesia. The rats confirmed death after lething the whole blood. • 2) The blood of 3 to 5 rats pooled in a 96-well round bottom culture plate was seeded at each 180 μL/well. • 3) It was cultured (37° C., 5% CO2, 95% air) for about 1 hour. • 4) The test compound solution was added each 10 μL/well, and cultured for 1 hour. • 5) LPS solution was added each 10 μL/well. • 6) The sample in which 2% dimethylsulfoxide-containing PBS(−) was added with each 10 μL/well in place of each test compound solution, and RPMI 1640 was added with each 10 μL/well in place of the LPS solution was made a negative control. • 7) The sample in which 2% dimethylsulfoxide-containing PBS(−) was added with each 10 μL/well in place of each test compound solution was made a positive control. • 8) After completion of 20 hours cultivation, the supernatant was recovered and the amount of TNFα released in the supernatant was measured by using an ELISA Kit. • 9) The TNFα production inhibitory ratio was calculated according to the following calculation formula. (Calculation of TNFα Production Inhibitory Ratio)
TNFα production inhibitory ratio (%) was calculated according to the following formula. TNFα production inhibitory ratio (%)=100×{1−(TNFα production amount of each test compound solution−average value of TNFα production amount of negative control group)/(average value of TNFα production amount of positive control group−average value of TNFα production amount of negative control group)}(%)
Further, a TNFα production inhibitory ratio (Efficacy (% DEX)) when the DEX treated group was made 100 was calculated. Efficacy (% DEX)=100×{(average value of TNFα production inhibitory ratio of each test compound solution)/(average value of TNFα production inhibitory ratio of DEX treated group)}(%)
Background: In an ELISA, binding on a coated surface is turned into a signal by an enzyme label.

Recombinant human GR, sequence (P04150 whole entry): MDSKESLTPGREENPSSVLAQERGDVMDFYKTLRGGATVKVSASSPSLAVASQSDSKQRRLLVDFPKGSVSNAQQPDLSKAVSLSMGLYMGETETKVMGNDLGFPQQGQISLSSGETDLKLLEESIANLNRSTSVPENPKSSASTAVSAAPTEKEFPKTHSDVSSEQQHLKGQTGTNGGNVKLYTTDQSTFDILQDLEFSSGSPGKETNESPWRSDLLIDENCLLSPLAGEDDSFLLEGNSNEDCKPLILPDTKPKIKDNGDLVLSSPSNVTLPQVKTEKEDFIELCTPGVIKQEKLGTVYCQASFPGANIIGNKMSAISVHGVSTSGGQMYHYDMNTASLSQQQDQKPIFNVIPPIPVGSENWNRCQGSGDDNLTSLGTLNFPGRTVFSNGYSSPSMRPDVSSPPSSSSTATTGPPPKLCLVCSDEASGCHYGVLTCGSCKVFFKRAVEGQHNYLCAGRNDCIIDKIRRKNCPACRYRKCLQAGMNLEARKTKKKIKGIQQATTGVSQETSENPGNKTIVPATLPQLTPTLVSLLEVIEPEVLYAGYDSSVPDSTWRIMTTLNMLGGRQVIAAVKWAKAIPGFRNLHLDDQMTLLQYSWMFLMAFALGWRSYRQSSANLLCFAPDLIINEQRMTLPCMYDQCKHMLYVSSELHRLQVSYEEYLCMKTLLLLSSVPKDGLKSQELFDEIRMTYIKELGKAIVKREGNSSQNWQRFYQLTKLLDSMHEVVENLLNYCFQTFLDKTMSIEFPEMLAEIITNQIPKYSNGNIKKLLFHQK

Turning to `COc1cc(OC[C@@H](C)O)ccc1-c1ccc2c(c1COc1cc(F)ccc1C)N(C)C(=O)C(C)(C)N2` [Compound 1-3, (R)-8-(5-fluoro-2-methylphenoxymethyl)-7-[4-(2-hydroxypropyl)oxy-2-methoxy-phenyl]-1,3,3-trimethyl-3,4-dihydro-1H-quinoxalin-2-one], in assay [1], the inhibition at 10 µM came to 95%. For the same compound, in assay [2], the Emax was determined as 93%.

As to `COc1cc(OC[C@H](O)CCO)ccc1-c1ccc2c(c1COc1cc(F)ccc1C)N(C)C(=O)C(C)(C)N2` [Compound 2-2, (R)-7-[4-(2,4-dihydroxybutyl)oxy-2-methoxyphenyl]-8-(5-fluoro-2-methyl-phenoxymethyl)-1,3,3-trimethyl-3,4-dihydro-1H-quinoxalin-2-one], in assay [1], the inhibition at 10 µM turned out to be 91%. Further, the Emax in assay [2] was 95%.

`COc1cc(OCC(O)CC(=O)N2CCOCC2)ccc1-c1ccc2c(c1COc1cc(F)ccc1C)N(C)C(=O)C(C)(C)N2` (stereo not shown) [Compound 10-2, 8-(5-fluoro-2-methylphenoxymethyl)-7-[4-[3-(N-morpholino)carbonyl-2-hydroxypropyl]oxy-2-methoxyphenyl]-1,3,3-trimethyl-3,4-dihydro-1H-quinoxalin-2-one]: the inhibition at 10 µM in assay [1] is greater than 99%. Also, the Emax in assay [2] is greater than 99%.

On to `COc1cc(OCC(O)C(F)(F)F)ccc1-c1ccc2c(c1COc1cc(F)ccc1C)N(C)C(=O)C(C)(C)N2` (stereo not shown) [Compound 1-2, 8-(5-Fluoro-2-methylphenoxymethyl)-7-[4-(2-hydroxy-3,3,3-trifluoro-propyl)oxy-2-methoxyphenyl]-1,3,3-trimethyl-3,4-dihydro-1H-quinoxalin-2-one], for which the Emax in assay [2] was found to be 94%.
